Measurements: patent US20240360082A1, “SUBSTITUTED PYRIDONE COMPOUNDS USEFUL TO TREAT ORTH[…]” (priority 2021, published 2024)

Target: influenza A virus minigenome (PB2, PB1, PA, NP proteins) (UniProt P04665)
Format: cell-based
Conditions: read-out: RNP_Hubei B

influenza A virus minigenome (PB2, PB1, PA, NP proteins), sequence (P04665 whole entry): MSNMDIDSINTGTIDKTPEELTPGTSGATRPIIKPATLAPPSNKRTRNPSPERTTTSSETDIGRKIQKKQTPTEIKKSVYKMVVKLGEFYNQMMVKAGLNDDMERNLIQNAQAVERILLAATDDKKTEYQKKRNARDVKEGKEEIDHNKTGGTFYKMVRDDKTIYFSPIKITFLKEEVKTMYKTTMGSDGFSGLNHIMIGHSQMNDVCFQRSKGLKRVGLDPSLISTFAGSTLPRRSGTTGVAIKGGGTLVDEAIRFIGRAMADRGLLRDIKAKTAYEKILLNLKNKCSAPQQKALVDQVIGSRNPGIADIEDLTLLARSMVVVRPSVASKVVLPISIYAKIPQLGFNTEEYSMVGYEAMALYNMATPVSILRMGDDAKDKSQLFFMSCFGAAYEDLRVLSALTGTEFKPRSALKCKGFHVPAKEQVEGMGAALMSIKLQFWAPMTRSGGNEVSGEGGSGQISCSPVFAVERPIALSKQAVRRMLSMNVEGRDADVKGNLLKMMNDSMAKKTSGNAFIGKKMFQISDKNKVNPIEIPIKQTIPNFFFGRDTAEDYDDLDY

| Compound | IC50 |
| --- | --- |
| CC(c1ccc(-c2cc(C(N)=O)c(=O)[nH]c2C(F)(F)F)cc1)N1CCOCC1 (stereo not drawn) [Example 33, 5-(4-(1-morpholinoethyl)phenyl)-2-oxo-6-(trifluoromethyl)-1,2-dihydropyridine-3-carboxamide] | 1 to 5 µM |
| NC(=O)c1cc(-c2ccc(CN3CCCOCC3)cc2)c(C(F)(F)F)[nH]c1=O [Example 34, 5-(4-((1,4-oxazepan-4-yl)methyl)phenyl)-2-oxo-6-(trifluoromethyl)-1,2-dihydropyridine-3-carboxamide] | 25 to 50 µM |
| C[C@@H]1CN(Cc2ccc(-c3cc(C(N)=O)c(=O)[nH]c3C(F)(F)F)cc2)C[C@H](C)O1 [Example 35, 5-(4-(((2S,6R)-2,6-dimethylmorpholino)methyl)phenyl)-2-oxo-6-(trifluoromethyl)-1,2-dihydropyridine-3-carboxamide] | 25 to 50 µM |
| NC(=O)c1cc(-c2ccc(CN3CCOCC3)c(F)c2)c(C(F)(F)F)[nH]c1=O [Example 36, 5-(3-fluoro-4-(morpholinomethyl)phenyl)-2-oxo-6-(trifluoromethyl)-1,2-dihydropyridine-3-carboxamide] | 10 to 25 µM |
| CC(O)c1ccc(-c2cc(C(N)=O)c(=O)[nH]c2C(F)(F)F)cc1 (stereo not drawn) [Example 37, 5-(4-(1-hydroxyethyl)phenyl)-2-oxo-6-(trifluoromethyl)-1,2-dihydropyridine-3-carboxamide] | 25 to 50 µM |
| COC1CN(Cc2ccc(-c3cc(C(N)=O)c(=O)[nH]c3C(F)(F)F)cc2)C1 [Example 38, 5-(4-((3-methoxyazetidin-1-yl)methyl)phenyl)-2-oxo-6-(trifluoromethyl)-1,2-dihydropyridine-3-carboxamide] | 25 to 50 µM |
| CC1(C)CN(Cc2ccc(-c3cc(C(N)=O)c(=O)[nH]c3C(F)(F)F)cc2)CCO1 [Example 39, 5-(4-((2,2-dimethylmorpholino)methyl)phenyl)-2-oxo-6-(trifluoromethyl)-1,2-dihydropyridine-3-carboxamide] | 10 to 25 µM |
| CO[C@H]1CCN(Cc2ccc(-c3cc(C(N)=O)c(=O)[nH]c3C(F)(F)F)cc2)C1 [Example 40, (S)-5-(4-((3-methoxypyrrolidin-1-yl)methyl)phenyl)-2-oxo-6-(trifluoromethyl)-1,2-dihydropyridine-3-carboxamide] | 25 to 50 µM |
| CO[C@@H]1CCN(Cc2ccc(-c3cc(C(N)=O)c(=O)[nH]c3C(F)(F)F)cc2)C1 [Example 41, (R)-5-(4-((3-methoxypyrrolidin-1-yl)methyl)phenyl)-2-oxo-6-(trifluoromethyl)-1,2-dihydropyridine-3-carboxamide] | 25 to 50 µM |
| NC(=O)c1cc(-c2ccc(CN3CCOCC3)cc2F)c(C(F)(F)F)[nH]c1=O [Example 42, 5-(2-fluoro-4-(morpholinomethyl)phenyl)-2-oxo-6-(trifluoromethyl)-1,2-dihydropyridine-3-carboxamide] | 10 to 25 µM |
| Cc1cc(-c2cc(C(N)=O)c(=O)[nH]c2C(F)(F)F)ccc1CN1CCOCC1 [Example 43, 5-(3-methyl-4-(morpholinomethyl)phenyl)-2-oxo-6-(trifluoromethyl)-1,2-dihydropyridine-3-carboxamide] | 1 to 5 µM |
| NC(=O)c1cc(-c2ccc(CN3CCCCC3)cc2)c(C(F)(F)F)[nH]c1=O [Example 44, 2-oxo-5-(4-(piperidin-1-ylmethyl)phenyl)-6-(trifluoromethyl)-1,2-dihydropyridine-3-carboxamide] | 25 to 50 µM |
| CN(C)Cc1ccc(-c2cc(C(N)=O)c(=O)[nH]c2C(F)(F)F)cc1 [Example 45, 5-(4-((dimethylamino)methyl)phenyl)-2-oxo-6-(trifluoromethyl)-1,2-dihydropyridine-3-carboxamide] | 25 to 50 µM |
| NC(=O)c1cc(-c2ccc(CN3CCOCC3=O)cc2)c(C(F)(F)F)[nH]c1=O [Example 46, 2-oxo-5-(4-((3-oxomorpholino)methyl)phenyl)-6-(trifluoromethyl)-1,2-dihydropyridine-3-carboxamide] | 25 to 50 µM |
| NC(=O)c1cc(-c2ccc(CN3CCS(=O)(=O)CC3)cc2)c(C(F)(F)F)[nH]c1=O [Example 47, 5-(4-((1,1-dioxidothiomorpholino)methyl)phenyl)-2-oxo-6-(trifluoromethyl)-1,2-dihydropyridine-3-carboxamide] | 25 to 50 µM |
| NC(=O)c1cc(-c2ccc(C(c3cnco3)N3CCOCC3)cc2)c(C(F)(F)F)[nH]c1=O (stereo not drawn) [Example 48, 5-(4-(morpholino(oxazol-5-yl)methyl)phenyl)-2-oxo-6-(trifluoromethyl)-1,2-dihydropyridine-3-carboxamide] | 25 to 50 µM |
| CS(=O)(=O)NCc1ccc(-c2cc(C(N)=O)c(=O)[nH]c2C(F)(F)F)cc1 [Example 49, 5-(4-(methylsulfonamidomethyl)phenyl)-2-oxo-6-(trifluoromethyl)-1,2-dihydropyridine-3-carboxamide] | 25 to 50 µM |
| NC(=O)c1cc(-c2ccc(CC3(O)CCOCC3)cc2)c(C(F)(F)F)[nH]c1=O [Example 50, 5-(4-((4-hydroxytetrahydro-2H-pyran-4-yl)methyl)phenyl)-2-oxo-6-(trifluoromethyl)-1,2-dihydropyridine-3-carboxamide] | 25 to 50 µM |

| Compound | IC50 |
| --- | --- |
| NC(=O)c1cc(-c2ccc(CC3(F)CCOCC3)cc2)c(C(F)(F)F)[nH]c1=O [Example 51, 5-(4-((4-fluorotetrahydro-2H-pyran-4-yl)methyl)phenyl)-2-oxo-6-(trifluoromethyl)-1,2-dihydropyridine-3-carboxamide] | 5 to 10 µM |
| NC(=O)c1cc(-c2ccc(OCc3cccc([N+](=O)[O-])c3)cc2)c(C(F)(F)F)[nH]c1=O [Example 54, 5-(4-((3-nitrobenzyl)oxy)phenyl)-2-oxo-6-(trifluoromethyl)-1,2-dihydropyridine-3-carboxamide] | 10 to 25 µM |
| CC(=O)N1CCC(COc2ccc(-c3cc(C(N)=O)c(=O)[nH]c3C(F)(F)F)cc2)CC1 [Example 55, 5-(4-((1-acetylpiperidin-4-yl)methoxy)phenyl)-2-oxo-6-(trifluoromethyl)-1,2-dihydropyridine-3-carboxamide] | 25 to 50 µM |
| NC(=O)c1cc(-c2ccc(OCC3CCOCC3)cc2)c(C(F)(F)F)[nH]c1=O [Example 56, 2-oxo-5-(4-((tetrahydro-2H-pyran-4-yl)methoxy)phenyl)-6-(trifluoromethyl)-1,2-dihydropyridine-3-carboxamide] | 25 to 50 µM |
| NC(=O)c1cc(-c2ccc(OCc3cccc(N)c3)cc2)c(C(F)(F)F)[nH]c1=O [Example 57, 5-(4-((3-aminobenzyl)oxy)phenyl)-2-oxo-6-(trifluoromethyl)-1,2-dihydropyridine-3-carboxamide] | 5 to 10 µM |
| NC(=O)c1cc(-c2ccc(OCC3CCCCC3)cc2)c(C(F)(F)F)[nH]c1=O [Example 58, 5-(4-(cyclohexylmethoxy)phenyl)-2-oxo-6-(trifluoromethyl)-1,2-dihydropyridine-3-carboxamide] | 5 to 10 µM |
| COc1ccc(COc2ccc(-c3cc(C(N)=O)c(=O)[nH]c3C(F)(F)F)cc2)cc1 [Example 59, 5-(4-((4-methoxybenzyl)oxy)phenyl)-2-oxo-6-(trifluoromethyl)-1,2-dihydropyridine-3-carboxamide] | 5 to 10 µM |
| CN(C)C(=O)c1ccc(COc2ccc(-c3cc(C(N)=O)c(=O)[nH]c3C(F)(F)F)cc2)cc1 [Example 60, 5-(4-((4-(dimethylcarbamoyl)benzyl)oxy)phenyl)-2-oxo-6-(trifluoromethyl)-1,2-dihydropyridine-3-carboxamide] | 25 to 50 µM |
| CCCNc1cccc(COc2ccc(-c3cc(C(N)=O)c(=O)[nH]c3C(F)(F)F)cc2)c1 [Example 66, 2-oxo-5-(4-((3-(propylamino)benzyl)oxy)phenyl)-6-(trifluoromethyl)-1,2-dihydropyridine-3-carboxamide] | 0.1 to 1 µM |
| NC(=O)c1cc(-c2ccc(OCc3ccncc3)cc2)c(C(F)(F)F)[nH]c1=O [Example 70, 2-oxo-5-(4-(pyridin-4-ylmethoxy)phenyl)-6-(trifluoromethyl)-1,2-dihydropyridine-3-carboxamide] | 25 to 50 µM |
| NC(=O)c1cc(-c2ccc(OCc3ccc4nonc4c3)cc2)c(C(F)(F)F)[nH]c1=O [Example 71, 5-(4-(benzo[c][1,2,5]oxadiazol-5-ylmethoxy)phenyl)-2-oxo-6-(trifluoromethyl)-1,2-dihydropyridine-3-carboxamide] | 25 to 50 µM |
| NC(=O)c1cc(-c2ccc(OCc3cccnc3)cc2)c(C(F)(F)F)[nH]c1=O [Example 72, 2-oxo-5-(4-(pyridin-3-ylmethoxy)phenyl)-6-(trifluoromethyl)-1,2-dihydropyridine-3-carboxamide] | 25 to 50 µM |
| NC(=O)c1cc(-c2ccc(OCc3ccccn3)cc2)c(C(F)(F)F)[nH]c1=O [Example 73, 2-oxo-5-(4-(pyridin-2-ylmethoxy)phenyl)-6-(trifluoromethyl)-1,2-dihydropyridine-3-carboxamide] | 25 to 50 µM |
| NC(=O)c1cc(-c2ccc(OCc3cccc4nonc34)cc2)c(C(F)(F)F)[nH]c1=O [Example 74, 5-(4-(benzo[c][1,2,5]oxadiazol-4-ylmethoxy)phenyl)-2-oxo-6-(trifluoromethyl)-1,2-dihydropyridine-3-carboxamide] | 10 to 25 µM |
| CS(=O)(=O)c1cccc(COc2ccc(-c3cc(C(N)=O)c(=O)[nH]c3C(F)(F)F)cc2)c1 [Example 75, 5-(4-((3-(methylsulfonyl)benzyl)oxy)phenyl)-2-oxo-6-(trifluoromethyl)-1,2-dihydropyridine-3-carboxamide] | 25 to 50 µM |
| NC(=O)c1cc(-c2ccc(OCc3ccccc3[N+](=O)[O-])cc2)c(C(F)(F)F)[nH]c1=O [Example 76, 5-(4-((2-nitrobenzyl)oxy)phenyl)-2-oxo-6-(trifluoromethyl)-1,2-dihydropyridine-3-carboxamide] | 10 to 25 µM |
| N#Cc1ccc(COc2ccc(-c3cc(C(N)=O)c(=O)[nH]c3C(F)(F)F)cc2)cc1 [Example 77, 5-(4-((4-cyanobenzyl)oxy)phenyl)-2-oxo-6-(trifluoromethyl)-1,2-dihydropyridine-3-carboxamide] | 10 to 25 µM |
| N#Cc1cccc(COc2ccc(-c3cc(C(N)=O)c(=O)[nH]c3C(F)(F)F)cc2)c1 [Example 78, 5-(4-((3-cyanobenzyl)oxy)phenyl)-2-oxo-6-(trifluoromethyl)-1,2-dihydropyridine-3-carboxamide] | 25 to 50 µM |
